Read-outs that look alike come from different tables or passages of the source.
Legend:
Format in all cases: binding, SARS-COV-2
[1] = biological target: SRBD - omicron
[2] = biological target: SARS-Cov2 SRBD and anti-alpha-Gal antibody (Severe acute respiratory syndrome coronavirus 2, UniProt P0DTC2)
[3] = tested on: Omicron S1/S2 ECD and anti-alpha-Gal antibody

COC[C@H](NC(=O)[C@@H](CCCCN)NC(=O)[C@H]1c2ccccc2C(=O)N(CCCNC(=O)Cc2ccc(CNC(=O)[C@@H](NC(=O)[C@@H](CCCCN)NC(=O)[C@H]3c4ccccc4C(=O)N(CCCNC(=O)Cc4ccc(CNC(=O)[C@H](CC5CC5)NC(=O)[C@H]5c6ccccc6C(=O)N(CCCNC(=O)[C@@H](C)NC(=O)Cc6ccc(CNC(=O)[C@H](C)NC(=O)[C@@H](CCCCN)NC(=O)[C@H]7c8ccccc8C(=O)N(CCCNC(=O)Cc8ccc(CNC(=O)[C@H](C)NC(=O)CNC(=O)[C@H]9c%10ccccc%10C(=O)N(CCCNC(=O)Cc%10ccc(CNC(=O)[C@H](C)NC(=O)[C@@H](CCC(=O)O)NC(=O)[C@H]%11c%12ccccc%12C(=O)N(CCCNC(=O)Cc%12ccc(CNC(=O)[C@H](Cc%13ccc(F)cc%13)NC(=O)[C@H]%13c%14ccccc%14C(=O)N(CCCNC(=O)[C@@H](CCC(=O)O)NC(=O)Cc%14ccc(CNC(=O)[C@H](C)NC(=O)CNC(=O)[C@H]%15c%16ccccc%16C(=O)N(CCCN)[C@@H]%15c%15ccc(CCC(=O)O)cc%15)cc%14)[C@@H]%13c%13cccc(Oc%14ccccc%14)c%13)cc%12)[C@@H]%11c%11ccc(CCC(=O)O)cc%11)cc%10)[C@@H]9c9cccnc9)cc8)[C@@H]7c7ccc(CCC(=O)O)cc7)cc6)[C@@H]5c5cccc(Oc6ccccc6)c5)cc4)[C@@H]3c3ccccc3)C(C)C)cc2)[C@@H]1c1ccc(O)cc1)C(=O)NCc1ccc(CC(N)=O)cc1 [Technein 16838-89-7]
Kd ([1]; BLI, SRBD - omicron, global 1:2 fitting): 7 nM

COC[C@H](NC(=O)[C@H]1c2ccccc2C(=O)N(CCCNC(=O)[C@@H](C)NC(=O)Cc2ccc(CNC(=O)[C@H](Cc3ccc(F)cc3)NC(=O)[C@H]3c4ccccc4C(=O)N(CCCNC(=O)CNC(=O)Cc4ccc(CNC(=O)[C@H](Cc5ccc(F)cc5)NC(=O)[C@H]5c6ccccc6C(=O)N(CCCNC(=O)[C@@H](CCC(=O)O)NC(=O)Cc6ccc(CNC(=O)[C@H](C)NC(=O)[C@H]7c8ccccc8C(=O)N(CCCNC(=O)[C@@H](C)N)[C@@H]7c7ccc(CCC(=O)O)cc7)cc6)[C@@H]5c5cccc(Oc6ccccc6)c5)cc4)[C@@H]3c3ccc(O)cc3)cc2)[C@@H]1c1ccc(O)cc1)C(=O)NCc1ccc(CC(=O)NCC(=O)NCCCN2C(=O)c3ccccc3[C@H](C(=O)N[C@@H](CC3CC3)C(=O)NCc3ccc(CC(=O)N[C@H](CCC(=O)O)C(=O)NCCCN4C(=O)c5ccccc5[C@H](C(=O)N[C@@H](C)C(=O)NCc5ccc(CC(=O)NCCCN6C(=O)c7ccccc7[C@H](C(=O)N[C@H](CCCCN)C(=O)N[C@H](C(=O)NCc7ccc(CC(=O)N[C@H](C)C(=O)NCCCN8C(=O)c9ccccc9[C@H](C(=O)N[C@@H](CC9CC9)C(=O)NCc9ccc(CC(N)=O)cc9)[C@H]8c8ccc(CCC(=O)O)cc8)cc7)C(C)C)[C@H]6c6ccccc6)cc5)[C@H]4c4cccnc4)cc3)[C@H]2c2cccnc2)cc1 [Technein 16838-89-8]
Kd [1]: 4 nM
antibody repurposing of alpha Gal antibodies (ELISA signal) [2]: significantly lower levels of antibody repurposing
antibody repurposing of alpha Gal antibodies (ELISA signal) [3]: significantly lower levels of antibody repurposing

— patent US20260042867A1, “ANTIBODY REPURPOSING” (priority 2022, published 2026)
